Source: patent US12484582B2, “Herbicidal compound” (PRO FARM GROUP, INC., priority 2017, dated 2025)

System: Burgundy amaranth (Amaranthus hypochondriacus)
Assay: Herbicidal bioassay against Burgundy amaranth (foliar spray, evaluated 6 days after application)
Type: in vivo
Conditions: 144 h, read-out: (%) Mortality/Control at Concentration (μg/mL)
Excerpt: As noted above, the herbicidal compositions can be chemically synthesized or derived from a biological organism. Here, the culture broth derived from the 100 L fermentation Burkholderia (A396) was extracted to give crude extract. The crude extract was then fractionated using reversed-phase C18 vacuum liquid chromatography (H2O/CH3OH) to give 5 fractions. These fractions were then screened for herbicidal activity using plant assay with Amaranthus hypochondriacus (Burgundy amaranth). The active fractions (F3 & F4) were then subjected to reversed phase HPLC to give pure compounds, which were then tested in the above mentioned bioassay to locate/identify the active compounds. […] To confirm the identity of the compounds, additional spectroscopic data such as LC-MS and NMR were recorded. Based on the detailed analysis of the data, the two compounds were identified as FR 901464 (MW 507) and spliceostatin C (MW 519). Note that different fermentation method would produce different (or no) amount of the below compound(s), some none at all.
Burgundy amaranth (Amaranthus hypochondriacus) plants were grown in a greenhouse to the 3-4 leaf stage in 2.5 cm square pots containing plant growth mix with slow release fertilizer. Treatments were then applied using a research cabinet track sprayer fitted with an 8001 nozzle and at a carrier volume of 20 gal/A. Negative controls were sprayed with water. Pots were blocked and randomized by treatment after spray and placed in a growth room at 25° C. and 50% RH, and watered as necessary. Plants were evaluated 6 days after application for visual damage and fresh weight. Data in Table 1 was subjected to ANOVA and means were separated using the Tukey method with 95% confidence intervals.

| SMILES | mortality at 0.65 µg/mL [%] | mortality at 1.3 µg/mL [%] |
| --- | --- | --- |
| CC(=O)OC(C)/C=C\C(=O)NC1CC(C)C(C/C=C(C)/C=C/C2OC(C)(O)CC3(CO3)C2O)OC1C (stereo not shown) [FR901464] | 44 | 84 |
| CC(=O)OC(C)/C=C\C(=O)NC1CC(C)C(C/C=C(C)/C=C/C2CC3(CO3)CC(CC(=O)O)O2)OC1C (stereo not shown) [Spliceostatin C] | 44 | 80 |
